Tested on: Phosphodiesterase aus Schlangengift
Test: Enzymatic cleavage of AZT-DMDOPE, detection of cleavage products by thin-layer chromatography
Type: biochemical
Settings: 10 mg AZT-DMDOPE in 0,1 M Tris, 0,5 mg enzyme, 15 h + 6 h at 37 °C

CCCCCCCCCCCCSCC(COP(=O)(O)OC[C@H]1O[C@@H](n2cc(C)c(=O)[nH]c2=O)C[C@@H]1N=[N+]=[N-])OCCCCCCCCCC (stereo partly shown) [AZT-DMDOPE, (3'-Desoxy-3'-azidothymidin)-5'-phosphorsäure-(3-dodecyl-mercapto-2-decyloxy)-propylester]
Fluoreszenzauslöschung DC: negativ

From patent EP0791056B1, “LIPID-CLEAVAGE ENZYME COMPLEX” (priority 1994, dated 1996)
